From patent US20240408077A1, “ATM KINASE INHIBITORS FOR USE IN THE TREATMENT OF NEUROLOGICAL CONDITIONS” (The University of Birmingham, priority 2021, published 2024)
Read-outs that look alike come from different tables or passages of the source.

Key:
brain gliomas = conditions: in combination with daily ionizing radiation therapy; cited from earlier work
[1] = molecular target: T1, phosphorylated ATM (pATM) (Rattus norvegicus, UniProt D4ACL8); experiment: pATM levels in DRGN cultures, western blot and densitometry; type: cell-based
T1 construct: Total protein was extracted from DRGN cultures and fresh DRG tissues; endogenous in cells; host or cells: primary adult rat dorsal root ganglion neurons
Experimental: Primary adult rat DRGN cultures were prepared as described by us previously (11). DRGN were dissociated using collagenase and cultured in supplemented Neurobasal-A (#10888022; NBA) containing B27 supplement (#17504044), L-glutamine (#25030081) and gentamicin (#15710064) (all from Invitrogen, Paisley, UK) at a plating density of 500/well in 8-well chamber slides (#C6932; Beckton Dickinson, Oxford, UK) pre-coated with 100 μg/ml poly-D-lysine (#P6407; Sigma, Poole, UK). […] Sigma) at 30 μM (11). […] Positive controls included pre-optimized fibroblast growth factor-2 (FGF-2) (#100-18C, Peprotech, London, UK; 10 ng/ml (11)). Cells were cultured for 4 days in a humidified chamber at 37° C. and 5% CO2 before being subjected to immunocytochemistry, as described below. Treatments were added in triplicate and repeated on 3 independent occasions (i.e. total n=9 wells/treatment) by an investigator masked to the treatment conditions. […] Tocris, Oxford, UK) were dissolved in DMSO (Sigma, Poole, UK) at stock concentrations of 10 mM for in vitro use. […] After a protein assay using the Bradford Assay Kit (#5000001; […] Proteins were then transferred onto PVDF membranes (#1EVH00005, Merck, Gillingham, UK), blocked in non-fat milk and incubated with rabbit anti-pATM ([…]) antibody (#13050, 1:200 dilution, Cell Signalling Technology, London, UK) overnight at 4° C. Membranes were then washed in Tris buffered saline (TBS) and incubated with appropriate mouse/rabbit HRP-labelled secondary antibody (#GENA934; 1:1000 dilution, GE Healthcare, Buckinghamshire, UK) and bands detected using an enhanced chemiluminescence kit (#RPN2108, GE Healthcare). Rabbit anti-β-actin antibody (#ZRB1312, 1:1000; Sigma) was used as a loading control for western blots. For densitometry, western blots were scanned into Adobe Photoshop (Adobe Systems, San Jose, CA, USA) keeping all scanning parameters the same between each blot and densitometrically analysed using the built-in gel plotting macros in ImageJ ([…].gov), as previously described (7).

DC injury model of SCI [2] = experiment: tape sensing and removal test (sensory function) after DC injury; type: in vivo, mice; conditions: oral; for tape sensing and removal time: over 6 weeks after DC injury, versus controls
Experimental: (§1) Mice were subcutaneously injected with Buprenorphine and anaesthetized using 5% isoflurane and 1.8 l/min O2. After a partial laminectomy at T8, DC were crushed bilaterally using calibrated watchmaker's forceps as described by us previously (12). Animals were dosed immediately after injury and allowed to recover in their home cage. Drugs were given every 24 hours for the duration of each experiment. Tape sensing and removal and horizontal ladder crossing tests were used to detect sensory and locomotor changes after DC injury and treatment as described by us previously (7). Briefly, tape sensing and removal was tested by attaching a 15/15 mm piece of sticky tape (Kip Hochkrepp, Bocholt, Germany) onto the plantar surface of each the left paw of each mouse and recording the time taken to detect and remove the tape. For the ladder crossing test, each mouse was trained prior to DC injury to master the traversing the ladder (0.9 m long and 15.5 cm wide with randomly adjusted rungs). Animals were assessed crossing the ladder and the total number of steps and the number of left and right hind paw slips were recorded and presented as an error ratio. All of these tests were performed at 2 days after injury, then at 1 week followed by weekly tests for 6 weeks. The experimenter was masked to the treatment conditions and animals were assessed in the same order and time of day with each test performed for 3 individual trials on each occasion.

DC injury model of SCI [3] = experiment: electrophysiology, compound action potentials across the lesion site after DC injury; type: in vivo, mice; conditions: oral, 6 weeks after DC injury
Experimental: Mice were subcutaneously injected with Buprenorphine and anaesthetized using 5% isoflurane and 1.8 l/min O2. After a partial laminectomy at T8, DC were crushed bilaterally using calibrated watchmaker's forceps as described by us previously (12). Animals were dosed immediately after injury and allowed to recover in their home cage. Drugs were given every 24 hours for the duration of each experiment. […] Spike 2 software (Cambridge Electronic Design, Cambridge, UK) was used to process and analyse the traces and determine the CAP amplitude and CAP area for each condition.

DC axons = type: in vivo, mice; conditions: oral 20 mg/kg once daily; for DC axon regeneration through the lesion site: 6 weeks after injury
primary adult rat DRGN = experiment: DRGN survival and neurite outgrowth in the presence of CNS myelin extracts; type: cell-based; conditions: with CME
Experimental: Primary adult rat DRGN cultures were prepared as described by us previously (11). DRGN were dissociated using collagenase and cultured in supplemented Neurobasal-A (#10888022; NBA) containing B27 supplement (#17504044), L-glutamine (#25030081) and gentamicin (#15710064) (all from Invitrogen, Paisley, UK) at a plating density of 500/well in 8-well chamber slides (#C6932; Beckton Dickinson, Oxford, UK) pre-coated with 100 μg/ml poly-D-lysine (#P6407; Sigma, Poole, UK). Glial cell proliferation was inhibited in cultures using 5-fluoro-2-deoxyuridine (5-FDU; #343333; Sigma) at 30 μM (11). […] Positive controls included pre-optimized fibroblast growth factor-2 (FGF-2) (#100-18C, Peprotech, London, UK; 10 ng/ml (11)). Cells were cultured for 4 days in a humidified chamber at 37° C. and 5% CO2 before being subjected to immunocytochemistry, as described below. Treatments were added in triplicate and repeated on 3 independent occasions (i.e. total n=9 wells/treatment) by an investigator masked to the treatment conditions.
DRGN were fixed in 8-well chamber slides in situ using 4% paraformaldehyde before being subjected to immunocytochemistry with rabbit anti-βIII tubulin antibodies (#T3952; 1:200 dilution; Sigma) to detect DRGN soma and neurites, as described previously (11). Alexa-488 goat […] IgG (#A32723; 1:400 dilution; ThermoFisher, Leicester, UK) secondary antibodies were used to visualize DRGN soma and neurites using an Axioplan 2 epifluorescent microscope equipped with an AxioCam HRc and running Axiovision Software (all from Carl Zeiss, Hertfordshire, UK).
With the investigator masked to the treatment conditions, the proportion of βIII-tubulin^+ DRGN, the number of DRGN with neurites and the longest DRGN neurite length were all calculated using Axiovision Software, as described by us previously (11).

pATM (pSer 1981) = molecular target: T2, pATM (pSer 1981) (Mus musculus, UniProt Q62388); experiment: pATM levels in DRG after DC crush injury, western blot and densitometry; type: in vivo, mice; conditions: for pATM (pSer 1981) levels: oral 20 mg/kg once daily, DRG at 4 weeks after DC injury; for pATM inhibition in DRGN from SCI treated animals: oral, doses up to 100 mg/kg
T2 construct: L4/L5 DRG pairs were dissected out and snap frozen in liquid nitrogen; from tissue; host or cells: mouse L4/L5 dorsal root ganglia, 4 weeks after DC crush injury
Experimental: Mice were subcutaneously injected with Buprenorphine and anaesthetized using 5% isoflurane and 1.8 l/min O2. After a partial laminectomy at T8, DC were crushed bilaterally using calibrated watchmaker's forceps as described by us previously (12). Animals were dosed immediately after injury and allowed to recover in their home cage. Drugs were given every 24 hours for the duration of each experiment.
For western blot, animals were killed at 4 weeks and tissues harvested as described below. For immunohistochemistry and behavioural analysis, animals were treated up to 6 weeks after DC injury.
Methods for tissue harvesting have been described by us previously (7, 12). Briefly, for western blot analysis: animals were killed by rising concentrations of CO2 and L4/L5 DRG pairs were dissected out and snap frozen in liquid nitrogen and stored at −80° C. until required (7). For immunohistochemistry: animals were killed in rising concentrations of CO2 and intracardially perfused with 4% paraformaldehyde (7, 12). The SCI site+5 mm either side of the lesion center was dissected out and postfixed in 4% formaldehyde for 2 hr, followed by cryoprotection in a graded series of sucrose and embedded in optimal temperature cutting medium (#12678646, ThermoFisher). Sections were cut at 15 μm-thick stored at −80° C. until required.
Total protein was extracted from DRGN cultures and fresh DRG tissues as described by us previously (7, 12). Briefly, cultures/DRG tissues were washed in PBS and total protein extracted in ice-cold lysis buffer containing 20 mM HEPES, 1 mM EDTA, 150 mM NaCl, 1% NP-40 and 1 mM DTT and supplemented with protease (#P8340) and phosphatase inhibitor cocktails (#P5726) (all from Sigma). After a protein assay using the Bradford Assay Kit (#5000001; BioRad, Watford, UK), 15 μg of total protein was separated on 12% Tris-glycine SDS-PAGE gels. Proteins were then transferred onto PVDF membranes (#1EVH00005, Merck, Gillingham, UK), blocked in non-fat milk and incubated with rabbit anti-pATM (ser1981) antibody (#13050, 1:200 dilution, Cell Signalling Technology, London, UK) overnight at 4° C. Membranes were then washed in Tris buffered saline (TBS) and incubated with appropriate mouse/rabbit HRP-labelled secondary antibody (#GENA934; 1:1000 dilution, GE Healthcare, Buckinghamshire, UK) and bands detected using an enhanced chemiluminescence kit (#RPN2108, GE Healthcare). Rabbit anti-β-actin antibody (#ZRB1312, 1:1000; Sigma) was used as a loading control for western blots.
For densitometry, western blots were scanned into Adobe Photoshop (Adobe Systems, San Jose, CA, USA) keeping all scanning parameters the same between each blot and densitometrically analysed using the built-in gel plotting macros in ImageJ (ww.nihimage.nih.gov), as previously described (7).

ATM [4] = molecular target: T3, ATM (Homo sapiens, UniProt Q13315); conditions: cited from earlier work
[5] = after oral administration; cited from earlier work
DC injury model of SCI [6] = experiment: horizontal ladder crossing test (locomotor function) after DC injury; type: in vivo, mice; conditions: oral; for locomotor function, ladder crossing: over 6 weeks after DC injury
Experimental: as §1

[7] = test system: kinases within the same family; conditions: cited from earlier work
ATM [8] = molecular target: T3, ATM; conditions: read-out: cell IC50; cited from earlier work
γH2Ax+ foci = conditions: twice weekly injections directly into the CSF, cited from earlier work
[9] = 5 nM, compared to vehicle-treated DRGN

T1 sequence (D4ACL8 1-3064): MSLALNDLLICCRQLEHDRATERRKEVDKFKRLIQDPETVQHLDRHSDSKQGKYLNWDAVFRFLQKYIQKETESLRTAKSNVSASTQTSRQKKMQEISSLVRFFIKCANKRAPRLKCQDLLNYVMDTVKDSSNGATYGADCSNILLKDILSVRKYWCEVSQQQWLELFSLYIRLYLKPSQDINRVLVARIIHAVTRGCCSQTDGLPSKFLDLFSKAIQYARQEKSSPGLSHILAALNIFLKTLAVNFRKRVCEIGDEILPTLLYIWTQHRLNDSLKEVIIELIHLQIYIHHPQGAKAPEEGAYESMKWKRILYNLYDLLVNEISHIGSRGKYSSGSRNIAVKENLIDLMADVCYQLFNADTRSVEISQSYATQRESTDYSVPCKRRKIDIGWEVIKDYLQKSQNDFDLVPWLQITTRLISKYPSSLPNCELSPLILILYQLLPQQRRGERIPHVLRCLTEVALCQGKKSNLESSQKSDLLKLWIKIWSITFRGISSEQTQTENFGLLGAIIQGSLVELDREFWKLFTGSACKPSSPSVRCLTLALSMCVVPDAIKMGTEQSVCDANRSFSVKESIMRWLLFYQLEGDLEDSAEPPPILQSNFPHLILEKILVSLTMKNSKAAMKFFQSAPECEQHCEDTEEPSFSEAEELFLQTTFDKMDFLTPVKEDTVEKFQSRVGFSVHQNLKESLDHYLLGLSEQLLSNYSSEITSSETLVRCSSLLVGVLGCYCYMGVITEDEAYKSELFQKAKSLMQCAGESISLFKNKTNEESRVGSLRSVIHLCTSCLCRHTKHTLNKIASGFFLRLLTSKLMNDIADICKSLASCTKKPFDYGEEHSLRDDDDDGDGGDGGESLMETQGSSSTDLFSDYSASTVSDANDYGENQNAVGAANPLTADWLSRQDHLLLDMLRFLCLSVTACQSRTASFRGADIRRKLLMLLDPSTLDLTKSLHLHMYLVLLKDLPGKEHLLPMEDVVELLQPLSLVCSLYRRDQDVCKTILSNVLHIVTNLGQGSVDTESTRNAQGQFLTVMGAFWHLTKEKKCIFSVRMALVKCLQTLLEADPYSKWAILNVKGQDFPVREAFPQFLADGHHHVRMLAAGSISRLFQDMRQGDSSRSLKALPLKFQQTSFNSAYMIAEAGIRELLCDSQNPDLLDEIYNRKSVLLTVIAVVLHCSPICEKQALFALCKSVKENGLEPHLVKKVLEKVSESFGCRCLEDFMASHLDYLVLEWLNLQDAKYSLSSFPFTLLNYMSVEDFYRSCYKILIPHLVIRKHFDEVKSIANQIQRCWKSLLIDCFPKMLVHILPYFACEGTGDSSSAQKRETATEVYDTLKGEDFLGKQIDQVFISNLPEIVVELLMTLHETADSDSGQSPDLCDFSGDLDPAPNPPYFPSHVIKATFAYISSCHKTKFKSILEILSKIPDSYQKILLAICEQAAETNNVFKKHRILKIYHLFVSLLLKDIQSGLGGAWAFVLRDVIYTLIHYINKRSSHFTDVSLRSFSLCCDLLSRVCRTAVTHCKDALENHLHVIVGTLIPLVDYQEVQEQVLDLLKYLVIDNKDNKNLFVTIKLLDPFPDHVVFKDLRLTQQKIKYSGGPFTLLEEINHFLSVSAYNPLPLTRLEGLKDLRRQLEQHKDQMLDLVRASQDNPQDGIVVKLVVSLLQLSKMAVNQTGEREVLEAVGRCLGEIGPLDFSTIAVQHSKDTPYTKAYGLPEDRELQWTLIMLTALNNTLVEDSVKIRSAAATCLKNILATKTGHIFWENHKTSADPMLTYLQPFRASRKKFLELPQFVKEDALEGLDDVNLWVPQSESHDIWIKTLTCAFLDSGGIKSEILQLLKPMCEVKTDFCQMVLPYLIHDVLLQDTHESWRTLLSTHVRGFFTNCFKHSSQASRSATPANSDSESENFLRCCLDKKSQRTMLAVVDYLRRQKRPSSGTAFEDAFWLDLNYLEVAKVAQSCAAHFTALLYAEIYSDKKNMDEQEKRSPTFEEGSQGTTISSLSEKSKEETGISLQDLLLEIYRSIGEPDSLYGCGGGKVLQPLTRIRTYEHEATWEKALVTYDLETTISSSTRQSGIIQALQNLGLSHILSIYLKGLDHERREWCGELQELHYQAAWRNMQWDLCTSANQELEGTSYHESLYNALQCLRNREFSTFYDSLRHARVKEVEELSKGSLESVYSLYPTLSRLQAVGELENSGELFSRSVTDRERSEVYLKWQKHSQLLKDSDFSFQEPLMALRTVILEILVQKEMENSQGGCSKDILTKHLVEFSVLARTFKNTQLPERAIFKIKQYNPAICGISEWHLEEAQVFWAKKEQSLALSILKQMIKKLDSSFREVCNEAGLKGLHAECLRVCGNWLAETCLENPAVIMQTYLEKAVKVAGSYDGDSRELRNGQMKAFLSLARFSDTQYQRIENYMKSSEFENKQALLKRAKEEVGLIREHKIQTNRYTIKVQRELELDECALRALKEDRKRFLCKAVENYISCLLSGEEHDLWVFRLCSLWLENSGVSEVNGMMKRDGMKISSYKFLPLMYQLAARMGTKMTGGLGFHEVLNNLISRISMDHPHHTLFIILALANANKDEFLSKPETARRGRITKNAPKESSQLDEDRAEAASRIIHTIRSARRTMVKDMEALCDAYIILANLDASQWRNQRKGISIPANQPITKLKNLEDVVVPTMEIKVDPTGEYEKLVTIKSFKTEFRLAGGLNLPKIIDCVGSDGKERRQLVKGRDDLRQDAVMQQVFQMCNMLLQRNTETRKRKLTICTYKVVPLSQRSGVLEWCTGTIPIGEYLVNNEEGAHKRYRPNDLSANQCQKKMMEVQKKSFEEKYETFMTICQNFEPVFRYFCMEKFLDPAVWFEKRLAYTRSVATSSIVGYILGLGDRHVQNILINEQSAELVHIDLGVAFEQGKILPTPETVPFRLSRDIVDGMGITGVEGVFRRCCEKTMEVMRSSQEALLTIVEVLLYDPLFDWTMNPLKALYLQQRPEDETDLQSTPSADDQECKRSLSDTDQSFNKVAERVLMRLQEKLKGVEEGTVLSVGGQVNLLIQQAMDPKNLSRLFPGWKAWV

CC(C)n1c(=O)n(C)c2cnc3ccc(-c4ccc(OCCCN5CCCCC5)nc4F)cc3c21 [AZD1390, 8-[2-Fluoro-6-[3-(I-piperidyl)propoxy]-3-pyridyl]-1-isopropyl-3-methyl-imidazo[4,5-c]quinolin-2-one]
tumor response and survival (brain gliomas): induced tumor regression and prolonged survival
reduction of pATM levels ([1]; 5 nM, compared to vehicle-treated (0 nM) cultures): 70%
lowest most effective dose for reduction of pATM levels ([1]; concentrations 1-10 nM tested): 5 nM
time for sensory function to return to baseline of sham-uninjured animals (DC injury model of SCI [2]; after injury): ≤ 4 weeks
tape sensing and removal time (DC injury model of SCI [2]): significantly shorter time than controls
CAP amplitudes (DC injury model of SCI [3]): significantly improved
CAP areas (DC injury model of SCI [3]): significantly improved
CAP trace (DC injury model of SCI [3]): return of a significant CAP trace
DC axon regeneration through the lesion site (DC axons): promoted DC axon regeneration through the lesion site and into the rostral cord
axons regenerating beyond the lesion site (DC axons; up to 1 mm beyond the lesion site, compared to vehicle-treated mice): up to 12%
increase of DRGN survival (primary adult rat DRGN; [9]): 60%
increase of longest neurite length (primary adult rat DRGN; [9]): 81%
increase of percentage of DRGN with neurites (primary adult rat DRGN; [9]): 88%
pATM (pSer 1981) levels (pATM (pSer 1981)): significant suppression
IC50 (ATM [4]): 0.5 to 3 nM
time bioavailable in the brain [5]: at least 8 hours
time to recover to sham-uninjured control levels, ladder crossing (DC injury model of SCI [6]): ≤ 4 weeks
locomotor function, ladder crossing (DC injury model of SCI [6]): marked improvement
selectivity over kinases within the same family [7]: > 10,000 fold
IC50 (ATM [8]): 0.78 nM

C[C@@H]1CN(CC(=O)Nc2ccc3c(c2)Cc2cccc(-c4cc(=O)cc(N5CCOCC5)o4)c2S3)C[C@H](C)O1 [KU-60019]
ATM activation in vitro [1]: able to suppress ATM activation in vitro
tape sensing and removal time (DC injury model of SCI [2]): no effect
γH2Ax+ foci (γH2Ax+ foci; after SCI): reduced
functional recovery after SCI (γH2Ax+ foci): promoted significant functional recovery
DC axon regeneration through the lesion site (DC axons): not oral KU-60019 promoted DC axon regeneration
suppression of pATM levels (pATM (pSer 1981); intrathecal delivery after injury): 81%
pATM (pSer 1981) levels (pATM (pSer 1981)): no effect
pATM inhibition in DRGN from SCI treated animals (pATM (pSer 1981)): no pATM inhibition
pATM inhibition in DRGN from SCI treated animals (pATM (pSer 1981); listed as KU6000-19): no effect
locomotor function, ladder crossing (DC injury model of SCI [6]): a significant deficit remained

FGF-2: fibroblast growth factor-2, positive control (Peprotech), 10 ng/ml
DRGN survival and neurite outgrowth in comparison with AZD1390 (primary adult rat DRGN; FGF-2 10 ng/ml positive control, KU-60019 at concentrations of a recent study): inferior compared to AZD1390
